Measured values as given in ChEMBL document CHEMBL1201862, “PubChem BioAssay data set” (2004).
Active and inactive are the calls of the source.

Experiments:
[1] = viability loss in human Jurkat cells – cell-based, luminescence, cytotoxicity control for P. falciparum gametocyte viability project, dose response (AID 1117277); type: functional;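 further: potency reflects loss of cellular ATP meaning fewer viable cells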
[2] = viability inhibitors of stage V gametocytes – luminescence, dose response (AID 1117278); type: functional, cell-based;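 further: gametocytes exposed to compound for 24 hours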
[3] = tested on: Streptococcus sp. 'group A'; assay: Streptococcus pyogenes SK(-)GAS viability under kanamycin – luminescence, BacTiterGlo, confirmation, counter-screen for streptokinase expression inhibitor project, dose response (AID 1900); type: functional, organism-based
Streptococcus = assay: GAS UMAA2166 growth inhibition – luminescence, BacTiterGlo, counter-screen for streptokinase expression inhibitor project, dose response (AID 1915); type: functional, organism-based;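 further: potency for reduction of bacterial viability or growth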
Streptokinase A = molecular target: T1, Streptokinase A (Streptococcus pyogenes serotype M1, UniProt P10520); assay: viability-normalized secreted streptokinase activity reduction – plasminogen activation absorbance, OD405, dose response (AID 1914); type: functional, Streptococcus pyogenes M1 GAS;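 further: secreted streptokinase activity via plasminogen activation per viability signal from cell pellet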
T1 sequence (P10520 whole entry): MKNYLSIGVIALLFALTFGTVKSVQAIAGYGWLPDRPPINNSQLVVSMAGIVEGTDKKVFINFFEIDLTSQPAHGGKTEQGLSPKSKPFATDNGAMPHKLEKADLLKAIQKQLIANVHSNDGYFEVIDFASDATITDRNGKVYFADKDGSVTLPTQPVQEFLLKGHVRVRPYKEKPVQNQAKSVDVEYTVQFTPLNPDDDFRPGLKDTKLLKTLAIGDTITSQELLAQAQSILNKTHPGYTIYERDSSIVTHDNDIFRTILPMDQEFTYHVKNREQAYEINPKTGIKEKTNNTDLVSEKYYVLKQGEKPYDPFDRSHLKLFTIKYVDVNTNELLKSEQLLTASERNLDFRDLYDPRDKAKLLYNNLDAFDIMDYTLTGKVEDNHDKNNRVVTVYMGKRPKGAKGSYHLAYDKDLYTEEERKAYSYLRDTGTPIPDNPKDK

[4] = molecular target: G-protein coupled receptor 183 (Homo sapiens, UniProt P32249); assay: SAR confirmation of small molecule antagonists of the EBI2 receptor via a luminescent beta-arrestin assa.; type: functional
[5] = molecular target: T2, Sentrin-specific protease 6 (Homo sapiens, UniProt Q9GZR1); type: functional;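 further: Luminescence-based dose-response confirmatory assay of SENP6 inhibition, following up an ultra-high-throughput screen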
T2 sequence (Q9GZR1 whole entry): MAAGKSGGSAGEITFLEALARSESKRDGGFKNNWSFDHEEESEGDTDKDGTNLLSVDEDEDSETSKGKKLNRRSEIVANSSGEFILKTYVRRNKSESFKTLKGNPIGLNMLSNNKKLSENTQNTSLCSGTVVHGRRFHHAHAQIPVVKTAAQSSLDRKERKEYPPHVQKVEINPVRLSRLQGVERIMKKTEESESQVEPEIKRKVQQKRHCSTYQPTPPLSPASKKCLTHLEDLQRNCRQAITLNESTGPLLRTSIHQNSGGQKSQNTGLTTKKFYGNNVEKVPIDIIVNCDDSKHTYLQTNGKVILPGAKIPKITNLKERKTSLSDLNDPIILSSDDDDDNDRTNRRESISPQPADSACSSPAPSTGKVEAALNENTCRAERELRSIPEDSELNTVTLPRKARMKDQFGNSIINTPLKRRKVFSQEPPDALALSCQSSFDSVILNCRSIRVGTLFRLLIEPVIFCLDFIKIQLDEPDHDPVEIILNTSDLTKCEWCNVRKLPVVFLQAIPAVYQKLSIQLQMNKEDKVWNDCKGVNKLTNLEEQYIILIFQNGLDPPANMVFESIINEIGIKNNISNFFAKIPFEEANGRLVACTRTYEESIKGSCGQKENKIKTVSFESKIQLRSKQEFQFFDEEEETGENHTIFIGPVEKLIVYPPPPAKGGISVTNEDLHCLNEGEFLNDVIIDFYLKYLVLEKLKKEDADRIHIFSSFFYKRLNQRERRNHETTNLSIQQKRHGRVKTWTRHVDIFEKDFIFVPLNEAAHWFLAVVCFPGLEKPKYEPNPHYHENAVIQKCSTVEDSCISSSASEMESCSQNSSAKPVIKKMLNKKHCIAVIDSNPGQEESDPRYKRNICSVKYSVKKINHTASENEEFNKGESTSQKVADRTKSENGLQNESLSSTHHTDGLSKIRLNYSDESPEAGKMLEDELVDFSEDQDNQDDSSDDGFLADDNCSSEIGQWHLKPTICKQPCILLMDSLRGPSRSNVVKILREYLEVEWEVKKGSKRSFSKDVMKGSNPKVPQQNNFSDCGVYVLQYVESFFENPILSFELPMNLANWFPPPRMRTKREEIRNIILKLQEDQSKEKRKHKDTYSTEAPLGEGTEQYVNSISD

[6] = molecular target: T3, Oxysterols receptor LXR-beta (Homo sapiens, UniProt P55055); type: functional, cell-based;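 further: Cell-based luminescence dose-response assay of agonist activity at LXR, run as a confirmatory counterscreen to a daf-12 agonist screen; HEK293 cells with Gal4-LXR fusion and GAL4-driven luciferase reporter; agonist potency from rising luciferase signal of a Gal4-LXR reporter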
T3 sequence (P55055 whole entry): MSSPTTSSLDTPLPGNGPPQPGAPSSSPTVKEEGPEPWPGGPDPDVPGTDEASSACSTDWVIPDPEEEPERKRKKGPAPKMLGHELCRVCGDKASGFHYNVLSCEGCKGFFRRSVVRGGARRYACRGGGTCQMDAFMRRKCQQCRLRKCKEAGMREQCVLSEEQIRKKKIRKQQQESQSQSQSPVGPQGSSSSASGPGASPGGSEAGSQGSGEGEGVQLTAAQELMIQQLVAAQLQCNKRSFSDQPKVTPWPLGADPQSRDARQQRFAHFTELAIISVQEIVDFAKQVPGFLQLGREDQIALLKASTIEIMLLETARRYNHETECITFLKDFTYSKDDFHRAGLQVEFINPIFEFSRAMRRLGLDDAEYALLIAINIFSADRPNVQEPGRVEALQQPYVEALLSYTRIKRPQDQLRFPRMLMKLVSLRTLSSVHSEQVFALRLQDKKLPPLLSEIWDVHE

[7] = molecular target: T4, Sentrin-specific protease 8 (Homo sapiens, UniProt Q96LD8); type: functional;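 further: luminescence read-out of SENP8 inhibition, dose-response confirmation following an ultra-high-throughput screen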
T4 sequence (Q96LD8 whole entry): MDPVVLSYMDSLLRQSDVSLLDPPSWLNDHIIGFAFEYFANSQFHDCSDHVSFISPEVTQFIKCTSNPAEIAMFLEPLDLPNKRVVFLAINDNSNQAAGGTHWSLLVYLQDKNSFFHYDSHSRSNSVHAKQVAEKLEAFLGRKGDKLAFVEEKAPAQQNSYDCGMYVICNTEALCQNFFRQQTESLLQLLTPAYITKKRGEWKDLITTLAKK

Caspase-3 = molecular target: T5, Caspase-3 (Homo sapiens, UniProt P42574); type: functional;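 further: Dose-response selectivity test against caspase-3 for candidate inhibitors of sentrin-specific proteases (SENPs)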
T5 sequence (P42574 whole entry): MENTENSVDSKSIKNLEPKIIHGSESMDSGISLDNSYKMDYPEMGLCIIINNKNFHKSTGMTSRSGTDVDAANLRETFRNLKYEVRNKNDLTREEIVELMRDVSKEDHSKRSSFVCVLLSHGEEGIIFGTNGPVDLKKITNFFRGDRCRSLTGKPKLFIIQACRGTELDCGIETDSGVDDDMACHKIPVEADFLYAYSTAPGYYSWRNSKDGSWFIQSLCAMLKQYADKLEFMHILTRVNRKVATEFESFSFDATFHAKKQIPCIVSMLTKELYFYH

[8] = molecular target: T6, Sentrin-specific protease 7 (Homo sapiens, UniProt Q9BQF6); type: functional;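 further: Luminescence-based dose-response confirmation of ultra-high-throughput screening hits, measuring inhibition of SENP7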
T6 sequence (Q9BQF6 whole entry): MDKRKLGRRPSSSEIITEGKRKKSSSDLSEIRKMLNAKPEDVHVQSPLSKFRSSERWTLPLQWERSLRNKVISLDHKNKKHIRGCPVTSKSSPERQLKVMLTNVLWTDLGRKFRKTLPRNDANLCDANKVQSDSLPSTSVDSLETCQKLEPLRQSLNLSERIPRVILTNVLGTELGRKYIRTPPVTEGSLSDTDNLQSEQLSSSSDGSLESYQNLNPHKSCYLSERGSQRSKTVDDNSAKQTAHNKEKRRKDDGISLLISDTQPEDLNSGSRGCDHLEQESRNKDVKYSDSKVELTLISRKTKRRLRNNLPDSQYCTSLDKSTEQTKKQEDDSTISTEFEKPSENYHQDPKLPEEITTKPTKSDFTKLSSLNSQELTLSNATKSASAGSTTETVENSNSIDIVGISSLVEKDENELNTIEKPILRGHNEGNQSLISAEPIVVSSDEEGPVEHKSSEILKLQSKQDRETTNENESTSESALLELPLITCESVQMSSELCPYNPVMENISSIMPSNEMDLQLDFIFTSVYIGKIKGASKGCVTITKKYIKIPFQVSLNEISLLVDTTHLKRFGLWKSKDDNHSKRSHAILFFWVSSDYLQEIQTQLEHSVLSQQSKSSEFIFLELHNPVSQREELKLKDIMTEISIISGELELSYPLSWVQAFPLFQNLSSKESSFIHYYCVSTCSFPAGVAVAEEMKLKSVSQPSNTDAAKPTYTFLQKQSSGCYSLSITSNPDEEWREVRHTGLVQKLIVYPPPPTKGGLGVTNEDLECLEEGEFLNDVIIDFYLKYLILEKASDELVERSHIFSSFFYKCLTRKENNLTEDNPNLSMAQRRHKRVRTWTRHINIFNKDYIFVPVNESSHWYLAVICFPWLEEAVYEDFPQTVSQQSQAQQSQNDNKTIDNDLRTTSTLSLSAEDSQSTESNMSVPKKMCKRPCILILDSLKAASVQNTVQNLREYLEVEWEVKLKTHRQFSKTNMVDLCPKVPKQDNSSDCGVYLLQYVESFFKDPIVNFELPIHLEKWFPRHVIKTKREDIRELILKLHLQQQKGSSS

Kallikrein-7 = Kallikrein-7 (Homo sapiens, UniProt P49862); assay: Fluorescence Intensity-based biochemical primary high throughput dose response assay to identify activators of kallikrein-7 (K7) zymogen.
[9] = OVCAR8 cell viability loss – plate reader, dry powder samples, PAX8 project, dose response (AID 743197); type: functional, cell-based; conditions: OVCAR-8
Paired box protein Pax-8 = Paired box protein Pax-8 (Homo sapiens, UniProt Q06710); assay: PAX8 transcriptional activity inhibition in RMG-I – RMG-I cells, luciferase, cherry-pick, dose response (AID 687027); type: functional, cell-based;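 further: luciferase reporter driven by Pax8 target thyroperoxidase promoter measured by SteadyGlo luminescence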
[10] = reduced cellular PGC1a acetyl-lysine signal – cell-based, cherry-picked samples, dose response (AID 720514); type: functional;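 further: potency may reflect raised or lowered acetylation signal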
[11] = OVCAR-3 cell viability loss – plate reader, dry powder samples, PAX8 inhibitor project, dose response (AID 743044); type: functional, cell-based
[12] = Dd2 parasite growth inhibition in erythrocytes – SYBR Green, dry powder samples, set 9, dose response (AID 1159568); type: functional, cell-based
[13] = A549 cell cytotoxicity, dose response, cytotoxicity control, plate reader, cherry-pick, antagonist series (AID 743412); type: functional, cell-based
[14] = P. falciparum Dd2 growth inhibitors, dose response, SYBR Green, cherry-picked samples (AID 1159567); type: functional, cell-based
[15] = blockers of bursicon-stimulated LGR2 cAMP reporter – cell-based, HEK293, CRE-luciferase reporter, cherry pick, set 2, dose response (AID 743343); type: functional;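 further: transfected cells were stimulated with diluted bursicon conditioned medium after compound addition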
[16] = blockade of melanocortin 4 receptor signaling – cell-based, plate reader, cherry pick, counter-screen for LGR2 antagonist project, dose response (AID 743444); type: functional;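 further: transfected HEK 293 cells stimulated with alpha-MSH peptide; potency of inhibitors of the alpha-MSH evoked signal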
[17] = toxicity to human HepG2 hepatoma cells – cell-based, plate reader, dry powder samples, cytotoxicity control, dose response (AID 1159569); type: functional;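 further: inhibitor potency with signal falling toward the positive control level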
[18] = growth inhibition of yeast DHODH-expressing 3D7 parasites – SYBR Green, dry powder samples, dose response (AID 1159570); type: functional, cell-based;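 further: parasite growth measured after 72 hours of compound exposure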
[19] = Dd2 malaria parasite growth inhibition potency – SYBR Green, dry powder samples, dose response (AID 1159566); type: functional, cell-based;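 further: potency for growth inhibition with lower SYBR green DNA signal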
[20] = growth inhibition of PfATP4-mutant resistant parasites – NITD609-resistant line, SYBR Green, dry powder, dose response (AID 1159571); type: functional, cell-based;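 further: parasites synchronized at ring stage by sorbitol before testing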

Sequence of G-protein coupled receptor 183 (P32249 whole entry): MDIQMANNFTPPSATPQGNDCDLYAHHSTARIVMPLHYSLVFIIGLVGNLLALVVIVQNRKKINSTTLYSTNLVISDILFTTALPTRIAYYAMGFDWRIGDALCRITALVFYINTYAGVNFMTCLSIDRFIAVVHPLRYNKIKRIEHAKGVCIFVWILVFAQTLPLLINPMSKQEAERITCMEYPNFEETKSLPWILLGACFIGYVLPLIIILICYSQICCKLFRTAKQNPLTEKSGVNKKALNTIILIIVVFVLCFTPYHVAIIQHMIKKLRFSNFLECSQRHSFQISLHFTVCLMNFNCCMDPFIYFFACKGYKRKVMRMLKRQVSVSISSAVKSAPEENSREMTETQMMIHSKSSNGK
Sequence of Kallikrein-7 (P49862 whole entry): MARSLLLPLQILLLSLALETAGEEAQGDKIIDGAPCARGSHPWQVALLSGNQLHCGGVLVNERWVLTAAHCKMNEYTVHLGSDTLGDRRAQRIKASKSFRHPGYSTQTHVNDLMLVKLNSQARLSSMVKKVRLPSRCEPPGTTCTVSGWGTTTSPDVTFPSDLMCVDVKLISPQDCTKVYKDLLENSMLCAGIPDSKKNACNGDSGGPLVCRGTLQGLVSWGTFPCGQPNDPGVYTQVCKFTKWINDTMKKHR
Sequence of Paired box protein Pax-8 (Q06710 whole entry): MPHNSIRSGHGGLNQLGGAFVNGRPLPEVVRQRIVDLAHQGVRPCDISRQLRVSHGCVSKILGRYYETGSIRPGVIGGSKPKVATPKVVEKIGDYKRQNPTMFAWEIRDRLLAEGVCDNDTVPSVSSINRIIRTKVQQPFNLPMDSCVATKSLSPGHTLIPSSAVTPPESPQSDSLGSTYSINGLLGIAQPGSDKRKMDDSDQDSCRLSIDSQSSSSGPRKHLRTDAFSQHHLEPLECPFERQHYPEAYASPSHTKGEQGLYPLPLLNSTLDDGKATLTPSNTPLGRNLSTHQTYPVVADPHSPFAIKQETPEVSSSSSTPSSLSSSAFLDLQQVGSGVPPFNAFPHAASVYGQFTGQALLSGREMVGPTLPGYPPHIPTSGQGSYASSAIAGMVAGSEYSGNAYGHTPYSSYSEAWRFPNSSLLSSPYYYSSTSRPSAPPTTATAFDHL

## COc1cc(CCC(C)=O)ccc1OC(=O)c1c(F)cccc1Cl
[1]
  IC50: > 83.2 µM (inactive)
[2]
  IC50: > 109 µM (inactive)

## Cc1ccc(C)n1-c1sc2c(c1C#N)CCC(C)C2 (configuration not stated)
[1]
  IC50: > 83.3 µM (inactive)
[3]
  EC50: 7.14 µM (active)
[2]
  IC50: > 109 µM (inactive)
Streptococcus
  EC50: > 150 µM (not active)
Streptokinase A
  EC50: 14.6 µM (active)

## Cc1ccc(C(=O)N2CCN(C(=O)/C=C/c3ccc(Br)cc3)CC2)cc1
[4]
  IC50: 0.00102 µM (active)

## O=C(/C=C/c1ccc(F)cc1)N1CCN(S(=O)(=O)c2ccccc2Br)CC1
[4]
  IC50: 0.00801 µM (active)

## CCOC(=O)/C(=N\Nc1ncnc2ccccc12)c1ccc(C)cc1
[5]
  IC50: 11.7 µM (active)
[6]
  EC50: > 67.6 µM (inactive)
cells
  EC50: > 67.6 µM (inactive)
[7]
  IC50: 13.4 µM (active)
Caspase-3
  IC50: 32.9 µM (active)
[8]
  IC50: 6.78 µM (active)

## CN(C)CCNS(=O)(=O)c1ccc2c3c(cccc13)C(=O)N2
Kallikrein-7
  EC50: 1.83 µM (active)

## Cc1ccc(S(=O)(=O)N(C)C[C@@H]2Oc3cc(C#Cc4ccncc4)ccc3S(=O)(=O)N([C@H](C)CO)C[C@H]2C)cc1
[9]
  AC50: > 70 µM (inactive)
Paired box protein Pax-8
  AC50: 3.3 µM (active)
[10]
  AC50: 3.54 µM (active)
[11]
  AC50: 3.13 µM (active)

## C[C@@H]1CN([C@H](C)CO)C(=O)c2cccc(NC(=O)c3ccc(-c4nccs4)cc3)c2O[C@@H]1CN(C)C(=O)Nc1ccc(C(F)(F)F)cc1
[12]
  AC50: 0.886 µM (active)

## C[C@H](CO)N1C[C@H](C)[C@H](CN(C)S(=O)(=O)c2ccc(C(F)(F)F)cc2)OCc2ccccc2-c2c(n(C)c3ccccc23)C1=O
[13]
  AC50: 19.8 µM (active)
[14]
  AC50: 0.427 µM (active)
[15]
  AC50: 27.3 µM (active)
[16]
  AC50: 28.9 µM (active)
[17]
  AC50: 25.7 µM (active)
[18]
  AC50: 0.155 µM (active)
[19]
  AC50: 0.117 µM (active)
[20]
  AC50: 0.152 µM (active)
[12]
  AC50: 0.293 µM (active)

## CCOC(=O)N1CCC2(CC1)CC(=O)c1c(ccc3oc(C(=O)O)c(C)c13)O2
Kallikrein-7
  EC50: 97.5 µM (inactive)

## O=C1Nc2ccccc2N=C(c2ccccc2)C1N(Cc1ccc(F)cc1)C(=O)c1cccnc1 (configuration not stated)
[10]
  AC50: 36.7 µM (active)
